Assay results reported in PMC7470810 (Acta Pharmacologica Sinica, 2019).

Key:
BCRP [1] = biological target: T1, BCRP (Homo sapiens, UniProt Q9UNQ0); details: not told; cited from earlier work
T1 sequence (Q9UNQ0 1-655): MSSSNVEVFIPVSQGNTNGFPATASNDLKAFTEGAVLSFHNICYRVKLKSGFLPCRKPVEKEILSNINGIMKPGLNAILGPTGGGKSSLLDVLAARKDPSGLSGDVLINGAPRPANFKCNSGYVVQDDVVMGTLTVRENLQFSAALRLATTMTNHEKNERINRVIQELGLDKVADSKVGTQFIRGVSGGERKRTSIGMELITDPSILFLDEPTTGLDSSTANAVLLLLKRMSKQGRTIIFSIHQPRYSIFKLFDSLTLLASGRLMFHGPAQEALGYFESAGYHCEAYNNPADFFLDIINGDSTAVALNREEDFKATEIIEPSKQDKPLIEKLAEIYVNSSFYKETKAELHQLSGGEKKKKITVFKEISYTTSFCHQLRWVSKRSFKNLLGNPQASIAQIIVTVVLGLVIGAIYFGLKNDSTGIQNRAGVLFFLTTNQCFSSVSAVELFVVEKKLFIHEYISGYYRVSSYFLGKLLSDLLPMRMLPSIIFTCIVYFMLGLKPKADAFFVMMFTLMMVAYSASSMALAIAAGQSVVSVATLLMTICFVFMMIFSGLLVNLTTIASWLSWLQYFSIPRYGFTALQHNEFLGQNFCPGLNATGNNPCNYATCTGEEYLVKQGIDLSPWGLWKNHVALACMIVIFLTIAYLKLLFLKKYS

brain BCRP = biological target: T2, brain BCRP (Rattus norvegicus, UniProt Q80W57); details: normal rats
T2 sequence (Q80W57 1-657): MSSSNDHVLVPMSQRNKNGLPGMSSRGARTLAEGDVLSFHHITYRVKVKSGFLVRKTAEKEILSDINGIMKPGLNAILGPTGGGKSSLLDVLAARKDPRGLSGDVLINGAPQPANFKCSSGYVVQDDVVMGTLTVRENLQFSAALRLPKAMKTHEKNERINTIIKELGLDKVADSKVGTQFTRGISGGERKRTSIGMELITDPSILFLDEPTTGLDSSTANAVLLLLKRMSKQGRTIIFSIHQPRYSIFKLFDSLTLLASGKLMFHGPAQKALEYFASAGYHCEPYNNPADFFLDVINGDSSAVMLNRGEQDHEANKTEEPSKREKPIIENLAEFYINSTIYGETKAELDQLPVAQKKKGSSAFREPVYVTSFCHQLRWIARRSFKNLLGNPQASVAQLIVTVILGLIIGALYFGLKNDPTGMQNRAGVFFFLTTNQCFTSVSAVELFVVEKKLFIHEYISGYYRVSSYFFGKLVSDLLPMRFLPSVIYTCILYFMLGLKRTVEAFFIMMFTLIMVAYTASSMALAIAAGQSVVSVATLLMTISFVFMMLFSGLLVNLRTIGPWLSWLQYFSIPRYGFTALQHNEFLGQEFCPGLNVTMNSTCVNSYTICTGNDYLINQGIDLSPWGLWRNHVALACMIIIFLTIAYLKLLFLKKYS

MDCKII-WT cells = assay: Uptake of AZT in MDCKII-WT cells; format: in vitro ADME, canine; details: wild-type MDCKII cells, AZT 1 μM, 120 min
SO and BDL rats = assay: Y-maze test during AZT treatment; format: in vivo, rat
[2] = cited from earlier work
BCRP [3] = biological target: BCRP (Homo sapiens, UniProt Q9UNQ0); details: HCMEC/D3 cells, siRNA for human ABCG2 vs CON
BCRP [4] = biological target: T1, BCRP; details: AZT 1 μM, 120 min

CC(C)(C)NC(=O)[C@@H]1C[C@@H]2CCCC[C@@H]2CN1C[C@@H](O)[C@H](Cc1ccccc1)NC(=O)[C@H](CC(N)=O)NC(=O)c1ccc2ccccc2n1 [saquinavir]
efflux by BCRP (BCRP [1]): BCRP also mediates the efflux

Ko143
effect of coadministration of Ko143 on influx of AZT into the hippocampus (brain BCRP): markedly increased | effect of incubation with Ko143 on uptake of AZT (MDCKII-WT cells): did not affect

Cc1cn([C@H]2C[C@H](N=[N+]=[N-])[C@@H](CO)O2)c(=O)[nH]c1=O [AZT, Zidovudine]
Y-maze percentage of alternation of arm entrance (SO and BDL rats; BDL rats treated with AZT 100 mg/kg every day i.v. compared with SO rats): significantly decreased | Y-maze total number of entries, effect of AZT treatment (SO and BDL rats; BDL rats, AZT 100 mg/kg every day i.v., day 5 of treatment): further enhanced by AZT treatment, but the difference was not significant | impairment of cognitive function by AZT (SO and BDL rats; SO rats, AZT 100 mg/kg every day i.v., Y-maze and shuttle box): did not occur | plasma protein binding [2]: 10% | uptake of AZT after BCRP siRNA knockdown (BCRP [3]): significantly increased | uptake of AZT in MDCKII-BCRP cells, % of that in MDCKII-WT cells (BCRP [4]): approximately 50.0%

CO[C@@H]1[C@@H](OC(N)=O)[C@@H](O)[C@H](Oc2ccc3c(O)c(NC(=O)c4ccc(O)c(CC=C(C)C)c4)c(=O)oc3c2C)OC1(C)C [novobiocin]
increase in Kin of AZT with novobiocin (brain BCRP; cortex, AZT 25 μM + novobiocin 200 μM, 2 min perfusion): not significant
